{"source": "patent US12239645B2", "about": "“Targeted dosing for the treatment of complement mediated disorders” (Achillion Pharmaceuticals, Inc., priority 2018, dated 2025)", "key": {"[1]": {"test_system": "fD, C3, C4, classical pathway (CP) function", "test": "Other complement assays (fD, C3, C4 serum concentration, serum total CP function)", "type": "in vivo, human", "protocol": "(§1) […] were dosed and evaluated in 4 dose groups with ten subjects receiving placebo (Table 1). The first dose group had 6 active and 6 placebo subjects; subsequent groups had 6 active and 2 placebo subjects each. Each group was followed for 28 days after dosing. All subjects were monitored for safety through the last scheduled visit at Day 28. Blood and urine samples were collected at predefined time points from Days 1 to 4 to determine plasma and urine concentrations of Compound 1 and from Days 1 to 7 to determine complement related activities. Results of serum AP activity measured by AP Wieslab assay as well as plasma Bb, factor D level and several other PD biomarkers were determined.\nSerum AP hemolysis activity was assessed in samples collected from all cohorts at predefined time points from Day 1 (pre-dose) through Day 21. Intense sampling was obtained on Day 1 (0 h to 12 h), Day 7 (0 h to 12 h), and Day 14 (0 h to 16 h); all other serum samples were collected at 0 h (morning PK troughs) on the indicated days. […] Serum complement AP activity measured ex vivo by the AP Wieslab assay, serum total complement classical pathway (CP) activity, plasma complement Bb concentrations, and serum FD, C3, and C4 concentrations were also measured at predefined time points."}, "[2]": {"test_system": "Bb fragment of complement Factor B", "test": "SAD study: Bb plasma concentrations", "type": "in vivo, human", "settings": "for mean Bb plasma concentration: eight hours post-dosing", "protocol": "as §1\nA graphical display of mean plasma Bb concentrations through Day 7 (reported in days) and within 24 hours of dosing (by randomized treatment group and overall) can be found in FIG. 9B and FIG. 9A, respectively. All Compound 1 dose groups evaluated had significant reductions in Bb plasma concentrations after single dose administration relative to baseline and the placebo-treated group as illustrated in FIG. 9A and FIG. 9B. Although the number of subjects evaluated in individual dose groups was relatively small (n=6), the magnitude of changes observed appeared to be dose-dependent. At baseline, the 40 mg, 80 mg, and 120 mg dose groups had Bb plasma concentrations within the normal reference range for the assay (i.e., 0.49 to 1.42 μg/mL); 40 mg, 80 mg, and 120 mg dose groups had mean (±SD) baseline values of 0.80 (±0.195) μg/mL, 0.78 (±0.128) μg/mL, and 0.70 (±0.095) μg/mL, respectively. Bb plasma concentrations reached a nadir 6 hours (in the 40 mg dose group) to 8 hours (in the 80 mg and 120 mg dose groups) post-dosing. Six hours post-dosing, mean (±SD) Bb plasma concentration in the 40 mg dose group had decreased to 0.51 (±0.091) μg/mL. Eight hours post-dosing, mean Bb plasma concentration had decreased to 0.48 (±0.056) μg/mL for the 80 mg dose group and 0.40 (±0.029) μg/mL for the 120 mg dose group. For the 80 mg and 120 mg dose groups, mean Bb plasma concentrations increased to above the LLN for the assay by 10 hours post-dosing (for the 80 mg dose group) and 24 hours (Day 2) (for the 120 mg dose group) post-dosing, respectively, with return to baseline values by 48 hours (Day 3) post-dosing. No subjects had treatment-emergent abnormalities in Bb plasma concentrations during the study."}}, "data": [{"smiles": "CC(=O)c1nn(CC(=O)N2[C@H](C(=O)Nc3nc(Br)ccc3C)C[C@@]3(C)C[C@@H]23)c2ccc(-c3cnc(C)nc3)cc12", "note": "[Compound 1, (1R,3S,5R)-2-(2-(3-acetyl-5-(2-methylpyrimidin-5-yl)-1H-indazol-1-yl)acetyl)-N-(6-bromo-3-methylpyridin-2-yl)-5-methyl-2-azabicyclo[3.1.0]hexane-3-carboxamide]", "values": [{"measurement": "change in serum CP activity and serum factor D, C3, C4 concentrations", "setting": "[1]; MAD study single-dose cohorts (240 mg fasted, 120 mg fed)", "value": "no significant changes"}, {"measurement": "change in fD, C3, C4 serum concentration and serum total CP function", "setting": "[1]; SAD, single dose up to 120 mg, vs baseline and placebo", "value": "no significant changes"}, {"measurement": "time of Bb plasma concentration nadir post-dosing", "setting": "[2]; 40 mg dose group", "value": 6, "unit": "h"}, {"measurement": "mean (±SD) Bb plasma concentration", "setting": "[2]; 40 mg single dose, six hours post-dosing", "value": "0.51 (±0.091) μg/mL"}, {"measurement": "time of Bb plasma concentration nadir post-dosing", "setting": "[2]; 80 mg and 120 mg dose groups", "value": 8, "unit": "h"}, {"measurement": "time for mean Bb plasma concentration to increase above the LLN", "setting": "[2]; 80 mg dose group", "value": "≤ 10", "unit": "h"}, {"measurement": "mean Bb plasma concentration", "setting": "[2]; 80 mg single dose", "value": "0.48 (±0.056) μg/mL"}, {"measurement": "time for mean Bb plasma concentration to increase above the LLN", "setting": "[2]; 120 mg dose group", "value": "≤ 24", "unit": "h"}, {"measurement": "mean Bb plasma concentration", "setting": "[2]; 120 mg single dose", "value": "0.40 (±0.029) μg/mL"}, {"measurement": "time of Bb return to baseline values post-dosing", "setting": "[2]; SAD dose groups", "value": "≤ 48", "unit": "h"}]}]}
